For orientation: EC50 means the concentration giving half of the maximal effect.

Like-named read-outs stand apart in the source and are kept apart here.

Common to all, as to assay type: cell-based
Test [1] addresses T1, WEE1 (Homo sapiens, UniProt P30291+Q96SW2).
T1 construct: C-terminal ePL-tagged (DiscoverX, Fremont, CA) full-length WEE1 expression construct; expressed in transfected cells; host or cells: LentiX-HEK293T (Invitrogen), lentivirally transduced; the cells also over-express GSPT1-GN
Nature of the test: WEE1-ePL degradation assay (293T-LentiX, InCELL Hunter luminescence, 4 hr). As to conditions: for DC50: LentiX-HEK293T cells expressing WEE1-ePL, 4 hr incubation, read-out: 293T-LentiX WEE1-ePL Degradation 4 hr EC50; for 293T-LentiX WEE1-ePL Degradation 4 hr YMin (%): lower limit of fit, % of DMSO control signal remaining. The essentials:
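EC50 comes from a four-parameter logistic fit of ePL luminescence (InCELL Hunter), with DMSO control defining Ymax. Compounds ran as 10-point 3-fold dilutions from 1 or 10 µM for 4 h at 37 °C. Cells were HEK293T-LentiX with ePL-tagged full-length WEE1 and over-expressed Cereblon-resistant GSPT1-GN.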

The subject of test [2] is MKN45 cells. Nature of the test: MKN45 cell proliferation assay (Cell-Titer-Glo, 120 hr). As to conditions: for EC50: read-out: MKN45 Cell Prolif. 120 hr EC50; for MKN45 Cell Prolif. 120 hr YMin (%): minimal percent of DMSO control observed. The essentials: (§1)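 Growth inhibition was read as CellTiter-Glo luminescence after 120 h at 37 °C in RPMI/10% FBS, with 400 MKN45 or 800 MDA-MB-231 cells seeded per well. Compounds were tested in 10-point half-log series starting at 1 or 10 uM (0.1% DMSO), in triplicate for MKN45 and duplicate for MDA-MB-231. EC50 values are four-parameter fits to %DMSO control, and Ymin-obs is the minimal observed %DMSO.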

Test [3] has as its system MDA-MB-231 cells. Put plainly: MDA-MB-231 cell proliferation assay (Cell-Titer-Glo, 120 hr). As to conditions: for MDA-MB 231 Cell Prolif. 120 hr YMin (%): minimal percent of DMSO control observed; for EC50: read-out: MDA-MB 231 Cell Prolif. 120 hr EC50. The essentials:
as §1

The mark [4] stands for this setting: Homo sapiens, MDA-MB-231, 120 h.

T1 sequence (P30291 whole entry): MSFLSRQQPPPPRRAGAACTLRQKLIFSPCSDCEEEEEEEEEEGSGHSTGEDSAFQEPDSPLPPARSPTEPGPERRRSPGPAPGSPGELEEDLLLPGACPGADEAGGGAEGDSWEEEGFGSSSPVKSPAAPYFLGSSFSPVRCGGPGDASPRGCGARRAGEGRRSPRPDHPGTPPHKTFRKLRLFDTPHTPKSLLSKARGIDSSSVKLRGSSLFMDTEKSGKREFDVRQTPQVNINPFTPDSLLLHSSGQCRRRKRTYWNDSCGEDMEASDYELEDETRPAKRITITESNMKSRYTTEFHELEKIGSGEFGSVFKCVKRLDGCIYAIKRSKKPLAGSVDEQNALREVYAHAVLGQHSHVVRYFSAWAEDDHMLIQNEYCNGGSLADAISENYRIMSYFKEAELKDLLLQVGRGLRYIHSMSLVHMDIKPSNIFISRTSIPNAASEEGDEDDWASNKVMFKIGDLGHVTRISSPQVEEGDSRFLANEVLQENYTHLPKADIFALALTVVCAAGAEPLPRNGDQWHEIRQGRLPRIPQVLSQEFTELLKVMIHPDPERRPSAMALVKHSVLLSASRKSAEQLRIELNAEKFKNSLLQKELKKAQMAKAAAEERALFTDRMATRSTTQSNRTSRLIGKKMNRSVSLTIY
T1 sequence (Q96SW2 whole entry): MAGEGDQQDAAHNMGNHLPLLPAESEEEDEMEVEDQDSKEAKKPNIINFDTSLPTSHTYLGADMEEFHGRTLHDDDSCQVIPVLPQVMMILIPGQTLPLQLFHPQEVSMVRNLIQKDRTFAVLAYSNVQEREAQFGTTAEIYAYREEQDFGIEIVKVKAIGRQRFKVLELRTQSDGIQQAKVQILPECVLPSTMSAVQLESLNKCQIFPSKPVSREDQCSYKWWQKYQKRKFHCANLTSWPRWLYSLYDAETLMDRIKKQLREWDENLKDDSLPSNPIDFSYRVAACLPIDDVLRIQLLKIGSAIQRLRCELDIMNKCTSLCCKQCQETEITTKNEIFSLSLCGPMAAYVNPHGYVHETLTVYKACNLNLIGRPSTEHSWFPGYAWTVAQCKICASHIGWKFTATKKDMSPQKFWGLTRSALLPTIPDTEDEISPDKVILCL
T1 sequence (Q16531 whole entry partner): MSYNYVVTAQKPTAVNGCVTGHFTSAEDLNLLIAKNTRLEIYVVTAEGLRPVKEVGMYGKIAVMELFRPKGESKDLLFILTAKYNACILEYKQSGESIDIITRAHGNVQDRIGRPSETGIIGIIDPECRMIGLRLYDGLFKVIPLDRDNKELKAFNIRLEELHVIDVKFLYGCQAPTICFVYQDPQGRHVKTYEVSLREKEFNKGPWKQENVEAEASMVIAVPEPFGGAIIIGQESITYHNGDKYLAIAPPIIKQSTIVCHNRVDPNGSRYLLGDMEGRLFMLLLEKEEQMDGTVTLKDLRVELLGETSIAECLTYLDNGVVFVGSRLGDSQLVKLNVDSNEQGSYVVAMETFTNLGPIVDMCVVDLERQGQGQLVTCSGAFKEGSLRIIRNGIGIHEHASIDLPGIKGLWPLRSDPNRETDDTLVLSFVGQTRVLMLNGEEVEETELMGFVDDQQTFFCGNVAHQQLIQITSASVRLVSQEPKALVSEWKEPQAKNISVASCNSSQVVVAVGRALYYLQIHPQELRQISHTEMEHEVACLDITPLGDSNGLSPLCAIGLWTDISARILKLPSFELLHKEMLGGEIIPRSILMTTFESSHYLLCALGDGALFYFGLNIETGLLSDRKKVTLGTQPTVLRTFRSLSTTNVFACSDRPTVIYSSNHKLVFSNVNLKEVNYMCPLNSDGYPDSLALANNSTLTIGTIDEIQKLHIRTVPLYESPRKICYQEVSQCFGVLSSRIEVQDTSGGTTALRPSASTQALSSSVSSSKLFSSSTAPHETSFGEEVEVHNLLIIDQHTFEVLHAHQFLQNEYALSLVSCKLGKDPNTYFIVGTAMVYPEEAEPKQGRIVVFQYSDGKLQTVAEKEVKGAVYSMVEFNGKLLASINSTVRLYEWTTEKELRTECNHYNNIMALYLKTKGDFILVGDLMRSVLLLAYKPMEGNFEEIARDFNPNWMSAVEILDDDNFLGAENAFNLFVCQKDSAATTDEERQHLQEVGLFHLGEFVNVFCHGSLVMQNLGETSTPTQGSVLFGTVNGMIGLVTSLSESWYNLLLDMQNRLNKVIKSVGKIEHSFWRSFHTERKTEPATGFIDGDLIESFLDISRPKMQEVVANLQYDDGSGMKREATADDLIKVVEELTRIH

Regarding `CN1CC2(CC(c3ccc4cc(CN5CC[C@H](Oc6ccc7c(c6)CN([C@H]6CCC(=O)NC6=O)C7=O)C5)ccc4n3)CO2)C1` (single isomer, unassigned) [Example 1, (S)-3-(5-(((S)-1-((2-((R*)-2-methyl-5-oxa-2-azaspiro[3.4]octan-7-yl)quinolin-6-yl)methyl)pyrrolidin-3-yl)oxy)-1-oxoisoindolin-2-yl)piperidine-2,6-dione], in test [1], the DC50 was determined as 368 nM and the “293T-LentiX WEE1-ePL Degradation 4 hr YMin (%)” value was found to be 30.7%. Also, in test [2] (Homo sapiens, MKN-45, 120 h), the EC50 is 75 nM. In addition, the “MKN45 Cell Prolif. 120 hr YMin (%)” value in test [2] was found to be 16.1%. Also, in test [3], the “MDA-MB 231 Cell Prolif. 120 hr YMin (%)” value is reported as 70.9% and the EC50 was 1560 nM.
In the case of `CN1CC2(CC(c3ccc4cc(CN5CC[C@H](Oc6ccc7c(c6)CN([C@H]6CCC(=O)NC6=O)C7=O)C5)ccc4n3)CO2)C1` (single isomer, unassigned) [Example 2, (S)-3-(5-(((S)-1-((2-((S*)-2-methyl-5-oxa-2-azaspiro[3.4]octan-7-yl)quinolin-6-yl)methyl)pyrrolidin-3-yl)oxy)-1-oxoisoindolin-2-yl)piperidine-2,6-dione], in test [1], the DC50 was determined as 339 nM and the “293T-LentiX WEE1-ePL Degradation 4 hr YMin (%)” value turned out to be 33.4%. For the same molecule, in test [2], the “MKN45 Cell Prolif. 120 hr YMin (%)” value was 28.1% and the EC50 was determined as 53 nM. Besides, in test [3], the “MDA-MB 231 Cell Prolif. 120 hr YMin (%)” value is 73.8% and the EC50 amounted to 234 nM.
Consider `CN1CC[C@]2(C[C@@H](c3ccc4cc(CN5CC[C@H](Oc6ccc7c(c6)CN([C@H]6CCC(=O)NC6=O)C7=O)C5)ccc4n3)CO2)C1` (single isomer, unassigned) [Example 4], for which, in test [1], the DC50 was 14 nM and the “293T-LentiX WEE1-ePL Degradation 4 hr YMin (%)” value stood at 30.9%. Further, the EC50 in test [2] (Homo sapiens, MKN-45, 120 h) came to 23 nM. Moreover, the “MKN45 Cell Prolif. 120 hr YMin (%)” value in test [2] is on record as 12.6%. Besides, in test [3] (setting [4]), the EC50 was determined as 146 nM. For the same molecule, the “MDA-MB 231 Cell Prolif. 120 hr YMin (%)” value in test [3] was 61.3%.
As to `COC[C@@H]1CN(Cc2ccc3nc(N4C[C@H]5CCO[C@H]5C4)ccc3c2)C[C@H]1Oc1ccc2c(c1)CN([C@H]1CCC(=O)NC1=O)C2=O` (single isomer, unassigned) [Example 5, (S)-3-(5-(((3S,4S)-1-((2-((3aR*,6aR*)-hexahydro-5H-furo[2,3-c]pyrrol-5-yl)quinolin-6-yl)methyl)-4-(methoxymethyl)pyrrolidin-3-yl)oxy)-1-oxoisoindolin-2-yl)piperidine-2,6-dione], in test [1], the DC50 is 1 nM and the “293T-LentiX WEE1-ePL Degradation 4 hr YMin (%)” value is given as 32.3%. Also, the EC50 in test [2] (Homo sapiens, MKN-45, 120 h) turned out to be 1 nM. The “MKN45 Cell Prolif. 120 hr YMin (%)” value in test [2] stood at 10.6%. Besides, the EC50 in test [3] (setting [4]) came to 12 nM. Moreover, in test [3], the “MDA-MB 231 Cell Prolif. 120 hr YMin (%)” value amounted to 45.5%.
With `O=C1CC[C@H](N2Cc3cc(O[C@@H]4CN(Cc5ccc6nc(N7C[C@H]8CCO[C@H]8C7)ccc6c5)CC4(F)F)ccc3C2=O)C(=O)N1` (single isomer, unassigned) [Example 6, (S)-3-(5-(((R)-4,4-difluoro-1-((2-((3aR*,6aR*)-hexahydro-5H-furo[2,3-c]pyrrol-5-yl)quinolin-6-yl)methyl)pyrrolidin-3-yl)oxy)-1-oxoisoindolin-2-yl)piperidine-2,6-dione], in test [1], the DC50 was determined as 2 nM. Further, the “293T-LentiX WEE1-ePL Degradation 4 hr YMin (%)” value in test [1] is on record as 27.4%. In addition, the EC50 in test [2] (Homo sapiens, MKN-45, 120 h) amounted to 5 nM; in test [3] (setting [4]), 63 nM. Also, the “MKN45 Cell Prolif. 120 hr YMin (%)” value in test [2] worked out at 11.8%. The “MDA-MB 231 Cell Prolif. 120 hr YMin (%)” value in test [3] is recorded as 62.4%.
For the molecule `O=C1CC[C@H](N2Cc3cc(O[C@H]4CCN(Cc5cc(F)c6nc(N7C[C@H]8CCO[C@H]8C7)ccc6c5)C4)ccc3C2=O)C(=O)N1` (single isomer, unassigned) [Example 7, (S)-3-(5-(((S)-1-((8-fluoro-2-((3aR*,6aR*)-hexahydro-5H-furo[2,3-c]pyrrol-5-yl)quinolin-6-yl)methyl)pyrrolidin-3-yl)oxy)-1-oxoisoindolin-2-yl)piperidine-2,6-dione], in test [1], the DC50 is 1 nM. Moreover, in test [1], the “293T-LentiX WEE1-ePL Degradation 4 hr YMin (%)” value was found to be 31.9%. Moreover, the EC50 in test [2] (Homo sapiens, MKN-45, 120 h) came to 5 nM; in test [3] (setting [4]) it was 74 nM. Also, the “MKN45 Cell Prolif. 120 hr YMin (%)” value in test [2] was 13.7%. Further, the “MDA-MB 231 Cell Prolif. 120 hr YMin (%)” value in test [3] amounted to 64.0%.
With `COC[C@@H]1CN(Cc2ccc3nc(N4C[C@H]5CCO[C@H]5C4)ncc3c2)C[C@H]1Oc1ccc2c(c1)CN([C@H]1CCC(=O)NC1=O)C2=O` (single isomer, unassigned) [Example 8, (S)-3-(5-(((3S,4S)-1-((2-((3aR*,6aR*)-hexahydro-5H-furo[2,3-c]pyrrol-5-yl)quinazolin-6-yl)methyl)-4-(methoxymethyl)pyrrolidin-3-yl)oxy)-1-oxoisoindolin-2-yl)piperidine-2,6-dione], in test [1], the DC50 was 4 nM and the “293T-LentiX WEE1-ePL Degradation 4 hr YMin (%)” value is recorded as 27.5%. Further, the EC50 in test [2] (Homo sapiens, MKN-45, 120 h) was determined as 6 nM. Besides, the “MKN45 Cell Prolif. 120 hr YMin (%)” value in test [2] worked out at 10.0%. For the same molecule, in test [3] (setting [4]), the EC50 was found to be 105 nM. Moreover, the “MDA-MB 231 Cell Prolif. 120 hr YMin (%)” value in test [3] amounted to 31.9%.
On to `O=C1CC[C@H](N2Cc3cc(O[C@H]4CCN(Cc5cc(F)c6nc(N7C[C@H]8CCO[C@H]8C7)ncc6c5)C4)ccc3C2=O)C(=O)N1` (single isomer, unassigned) [Example 9, (S)-3-(5-(((S)-1-((8-fluoro-2-((3aR*,6aR*)-hexahydro-5H-furo[2,3-c]pyrrol-5-yl)quinazolin-6-yl)methyl)pyrrolidin-3-yl)oxy)-1-oxoisoindolin-2-yl)piperidine-2,6-dione], for which, in test [1], the DC50 is 6 nM and the “293T-LentiX WEE1-ePL Degradation 4 hr YMin (%)” value came to 32.4%. Moreover, the EC50 in test [2] (Homo sapiens, MKN-45, 120 h) was 11 nM. Further, the “MKN45 Cell Prolif. 120 hr YMin (%)” value in test [2] is listed as 11.7%. For the same molecule, the EC50 in test [3] (setting [4]) was determined as 366 nM. For the same molecule, in test [3], the “MDA-MB 231 Cell Prolif. 120 hr YMin (%)” value is given as 45.1%.
Consider `COC[C@@H]1CN(Cc2cc(F)c3nc(N4C[C@H]5CCO[C@H]5C4)ncc3c2)C[C@H]1Oc1ccc2c(c1)CN([C@H]1CCC(=O)NC1=O)C2=O` (single isomer, unassigned) [Example 10, (S)-3-(5-(((3S,4S)-1-((8-fluoro-2-((3aR*,6aR*)-hexahydro-5H-furo[2,3-c]pyrrol-5-yl)quinazolin-6-yl)methyl)-4-(methoxymethyl)pyrrolidin-3-yl)oxy)-1-oxoisoindolin-2-yl)piperidine-2,6-dione], for which, in test [1], the DC50 came to 2 nM and the “293T-LentiX WEE1-ePL Degradation 4 hr YMin (%)” value is reported as 27.8%. Besides, the EC50 in test [2] (Homo sapiens, MKN-45, 120 h) came to 2 nM. In addition, the “MKN45 Cell Prolif. 120 hr YMin (%)” value in test [2] came to 10.6%. Further, the EC50 in test [3] (setting [4]) was 70 nM. Also, in test [3], the “MDA-MB 231 Cell Prolif. 120 hr YMin (%)” value was determined as 24.6%.
Regarding `O=C1CCC(N2C(=O)c3ccc(O[C@H]4CCN(Cc5cc(F)c6nc(C7CCOCC7)ccc6c5)C4)cc3C2=O)C(=O)N1` (single isomer, unassigned) [Example 11, 2-((S*)-2,6-dioxopiperidin-3-yl)-5-(((S)-1-((8-fluoro-2-(tetrahydro-2H-pyran-4-yl)quinolin-6-yl)methyl)pyrrolidin-3-yl)oxy)isoindoline-1,3-dione], in test [1], the DC50 came out at 4 nM and the “293T-LentiX WEE1-ePL Degradation 4 hr YMin (%)” value is given as 30.4%. Also, in test [2] (Homo sapiens, MKN-45, 120 h), the EC50 came to 33 nM. Further, the “MKN45 Cell Prolif. 120 hr YMin (%)” value in test [2] was 12.1%. In addition, the EC50 in test [3] (setting [4]) is 525 nM. Moreover, in test [3], the “MDA-MB 231 Cell Prolif. 120 hr YMin (%)” value is 53.2%.
`COC[C@@H]1CN(Cc2cc(F)c3nc(N4C[C@@H]5CCO[C@@H]5C4)ncc3c2)C[C@H]1Oc1ccc2c(c1)CN([C@H]1CCC(=O)NC1=O)C2=O` (single isomer, unassigned) [Example 13, (S)-3-(5-(((3S,4S)-1-((8-fluoro-2-((3aS*,6aS*)-hexahydro-5H-furo[2,3-c]pyrrol-5-yl)quinazolin-6-yl)methyl)-4-(methoxymethyl)pyrrolidin-3-yl)oxy)-1-oxoisoindolin-2-yl)piperidine-2,6-dione]: in test [1], the DC50 amounted to 1 nM and the “293T-LentiX WEE1-ePL Degradation 4 hr YMin (%)” value is given as 22.1%. For the same molecule, the EC50 in test [2] (Homo sapiens, MKN-45, 120 h) was determined as 3 nM. In test [2], the “MKN45 Cell Prolif. 120 hr YMin (%)” value is 11.9%. In addition, the EC50 in test [3] (setting [4]) came out at 61 nM. The “MDA-MB 231 Cell Prolif. 120 hr YMin (%)” value in test [3] came to 37.3%.
Take `O=C1CC[C@H](N2Cc3cc(O[C@@H]4CN(Cc5cc(F)c6nc(N7C[C@H]8CCO[C@H]8C7)ccc6c5)CC4(F)F)ccc3C2=O)C(=O)N1` (single isomer, unassigned) [Example 14, (S)-3-(5-(((R)-4,4-difluoro-1-((8-fluoro-2-((3aR*,6aR*)-hexahydro-5H-furo[2,3-c]pyrrol-5-yl)quinolin-6-yl)methyl)pyrrolidin-3-yl)oxy)-1-oxoisoindolin-2-yl)piperidine-2,6-dione]: in test [1], the DC50 amounted to 3 nM and the “293T-LentiX WEE1-ePL Degradation 4 hr YMin (%)” value is on record as 31.8%. Moreover, the EC50 in test [2] (Homo sapiens, MKN-45, 120 h) worked out at 6 nM. Also, in test [2], the “MKN45 Cell Prolif. 120 hr YMin (%)” value was determined as 10.2%. The EC50 in test [3] (setting [4]) was 63 nM. Moreover, the “MDA-MB 231 Cell Prolif. 120 hr YMin (%)” value in test [3] amounted to 34.4%.

(Values after US20250197374A1, “WEE1 DEGRADING COMPOUNDS AND USES THEREOF” (BRISTOL-MYERS SQUIBB COMPANY, priority 2023, published 2025).)
